Results as given in paper PMC5848165 (Toxins, 2018).
Residues, ends and D or L forms follow the SMILES beside them.

How the values were obtained:
Nav1.6 = assay: Whole-cell patch clamp, Nav1.6 in HEK293 cells; assay type: cell-based; conditions: 1 µM, −10 mV from −80 mV
Excerpt: Nine sodium channel subtypes have been identified and classified as TTX-S (Nav1.1–Nav1.4, Nav1.6, and Nav1.7) or TTX-R types (Nav1.5, Nav1.8, and Nav1.9). […] However, the subtype selectivity of JZTX-34 on the subtype of sodium channel is still unknown. In this work, effects of JZTX-34 on VGSC subtypes (Nav1.1–Nav1.8) were examined. Nav1.1–Nav1.7 were transfected into HEK293 cells and Nav1.8 currents were expressed in ND cells. Inward sodium currents were elicited by a 50 ms depolarizing potential to −10 mV from a holding potential of −80 mV every 5 s. […] No effects on other sodium channel subtypes were found (Nav1.1, Nav1.2, Nav1.4–Nav1.6, and Nav1.8) (Figure S2).
The HEK293T cells were maintained in standard culture conditions (5% CO2 and 37 °C). Then, 10% fetal bovine serum was added to Dulbecco’s modified Eagle’s medium. […] After culturing for 36–72 h, cells with obvious green fluorescence were selected for sodium currents recordings the internal solution for sodium currents recording that contained (in mM) 140 CsF, 5 NaCl, 10 HEPES, 3 Na2-ATP, and 10 EGTA. […]
(§1) Sodium currents were recorded from DRG, HEK293, and ND cells by the whole-cell patch-clamp technique at 25 °C. […] Experiments date were acquired from whole-cell Axon 700B patch clamp amplifier (Molecular Devices, Sunnyvale, CA, USA) and analyzed by the program Clampfit10.0 (Molecular Devices, Sunnyvale, CA, USA) and Sigmaplot. […]

Nav1.7 = assay: Gating properties of Nav1.7 (current-voltage, steady-state activation and inactivation); assay type: cell-based, human
Protocol: We investigated the effects of this toxin on the gating properties of Nav1.7. The current-voltage relationship of Nav1.7 was investigated using step depolarization ranging from −80 to +80 mV from a holding potential of −80 mV. Under control conditions, the threshold of initial activation was about −40 mV, and the inward current peaked at −20 mV. […] The midpoint of channel activation before and after application of 1 µM toxin was −27.9 ± 3.3 and −28.1 ± 2.9 mV, respectively (Figure S3B). […] The effect of JZTX-34 on steady-state inactivation was also investigated using a standard two-pulse protocol as described in the legend. […]
cDNA genes encoding rat Nav1.1, Nav1.2, Nav1.3, Nav1.4, Nav1.5, human Nav1.7 (hNav1.7), and hNav1.8 were subcloned into the vectors pRGB4 and pcDNA3.1-mod, respectively. The chimera of Nav1.5 (Nav1.7-DII-S3-S4) and Nav1.7 (Nav1.5-DIV-S3-S4) were constructed according the methods described previously. Mutations of Nav1.5 and Nav1.7 were constructed using QuikChange II XL Site-Directed Mutagenesis kit (Agilent Technologies Inc, Palo Alto, CA, USA). All chimera and mutations were sequenced to determine the right sequences.
The HEK293T cells were maintained in standard culture conditions (5% CO2 and 37 °C). Then, 10% fetal bovine serum was added to Dulbecco’s modified Eagle’s medium. Sodium channel subtypes (Nav1.1–Nav1.5, Nav1.7), the chimera and mutants of Nav1.5 and Nav1.7 with β1subnit tagged with eGFP in a molar ratio of 2:1, were transiently co-transfected into HEK293 cells using Lipofectamine 3000 (Invitrogen, Carlsbad, CA, USA). Nav1.8, β1subnit, and eGFP were co-transfected into ND cells using the same protocol. After culturing for 36–72 h, cells with obvious green fluorescence were selected for sodium currents recordings the internal solution for sodium currents recording that contained (in mM) 140 CsF, 5 NaCl, 10 HEPES, 3 Na2-ATP, and 10 EGTA. […]
as §1
Data from Axon 700B patch clamp were analyzed by Clampfit10.0 (Molecular Devices, Sunnyvale, CA, USA). […] The G-V curves were obtained by calculating the conductance (G) at each voltage (V) using the equation G = I/(V1 − Vrev), with Vrev being the reversal potential determined for each cell individually. […] All the results from patch clamp and animal models are expressed as means ± standard error of the mean (SEM). Statistical significance was calculated using Student’s t-test and was defined as p < 0.05. […]

Question: Which results are given for CC(C)C[C@@H]1NC(=O)[C@H](Cc2c[nH]c3ccccc23)NC(=O)[C@H](CCC(=O)O)NC(=O)[C@H](CCCNC(=N)N)NC(=O)[C@@H](NC(=O)[C@H](C)N)CSSC[C@@H]2NC(=O)[C@@H]3CSSC[C@@H](C(=O)N[C@H](C(=O)N[C@@H](Cc4c[nH]c5ccccc45)C(=O)N[C@@H](CC(=O)O)C(=O)N[C@@H](Cc4c[nH]c5ccccc45)C(=O)N[C@H](C(=O)N[C@H](C(=O)O)C(C)C)[C@@H](C)O)C(C)C)NC(=O)[C@H](Cc4c[nH]cn4)NC(=O)[C@H](Cc4ccc(O)cc4)NC(=O)[C@@H]4CCCN4C(=O)[C@H](Cc4c[nH]c5ccccc45)NC(=O)[C@H](CCCCN)NC(=O)[C@H](CCCCN)NC(=O)[C@H](CCCNC(=N)N)NC(=O)[C@H](CSSC[C@H](NC(=O)CNC(=O)CNC1=O)C(=O)N[C@@H](CO)C(=O)N[C@@H](CCCCN)C(=O)N[C@@H](CC(=O)O)C(=O)N[C@@H](C)C(=O)N[C@@H](CC(=O)O)C(=O)N3)NC(=O)[C@H](CCC(=O)O)NC(=O)[C@H](CC(C)C)NC(=O)[C@H](Cc1c[nH]cn1)NC(=O)[C@H](C)NC2=O [JZTX-34, Jingzhaotoxin-34] (HELM PEPTIDE1{A.C.R.E.W.L.G.G.C.S.K.D.A.D.C.C.A.H.L.E.C.R.K.K.W.P.Y.H.C.V.W.D.W.T.V}$PEPTIDE1,PEPTIDE1,2:R3-16:R3|PEPTIDE1,PEPTIDE1,9:R3-21:R3|PEPTIDE1,PEPTIDE1,15:R3-29:R3$$$V2.0; N-terminus and C-terminus assumed)?
Answer: effect on Nav1.6 currents (Nav1.6): No effects; shift of steady-state inactivation (Nav1.7; 1 µM): small hyperpolarizing shift in the steady-state inactivation; midpoint of steady-state inactivation with toxin (Nav1.7; 1 µM, "with or without" toxin −67.3 and −73.7 mV, respectively, 500 ms prepulse −100 to −10 mV, test pulse −10 mV 20 ms, n = 5): about −67.3 mV; current-voltage relationship of Nav1.7 (Nav1.7; 1 µM, steps −80 to +80 mV from −80 mV holding): did not alter the current-voltage relationship; midpoint of channel activation after toxin (Nav1.7; after 1 µM toxin (before: −27.9 ± 3.3 mV), Boltzmann fit, n = 5): −28.1 ± 2.9 mV
